≈ marks a conversion by molar mass, not a printed value. Like-named read-outs stand apart in the source and are kept apart here.
How the values were obtained:
E. coli 2906 = assay: MIC, panel of quinolone-resistant strains (CLSI); format: cell-based; conditions: Escherichia coli, CIP R
A. baumannii A489 [1] = assay: Preliminary MBC without and with sub-inhibitory polymyxin B (Example 4); format: cell-based, Acinetobacter baumannii; conditions: Acinetobacter baumannii, A489, A. baumannii A489, without polymyxin B, 1st experiment, read-out: MBC without PB
A. baumannii J2 [2] = assay: as above; format: cell-based, Acinetobacter baumannii; conditions: Acinetobacter baumannii, J2, A. baumannii J2, without polymyxin B, preliminary MBC, read-out: MBC without PB
P. aeruginosa 143-3-03 = assay: MIC, panel of quinolone-resistant strains (CLSI); format: cell-based; conditions: Pseudomonas aeruginosa, 143303; CIP I, POL R
A. baumannii A329 [3] = assay: MIC without and with sub-inhibitory polymyxin B (Example 4); format: cell-based, Acinetobacter baumannii; conditions: Acinetobacter baumannii, A329, A. baumannii A329; without polymyxin B; 1st experiment; read-out: MIC without PB
A. baumannii A329 [4] = assay: MIC determination for Acinetobacter strains (Example 3); format: cell-based; conditions: LEV R, CIP R, MRP R, IMP R, AMK R, TET R
A. baumannii A489 [5] = assay: MIC without and with sub-inhibitory polymyxin B (Example 4); format: cell-based, Acinetobacter baumannii; conditions: Acinetobacter baumannii, A489, A. baumannii A489, without polymyxin B, read-out: MIC without PB
Pseudomonas ssp PER-1 = assay: MIC, panel of quinolone-resistant strains (CLSI); format: cell-based, Pseudomonas spp; conditions: PER1, CIP R, ESBL
[6] = tested on: Acinetobacter sp. (H064200250); assay: Preliminary MBC without and with sub-inhibitory polymyxin B (Example 4); format: cell-based; conditions: Acinetobacter, without polymyxin B, preliminary MBC, read-out: MBC without PB
Method in brief: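 Plates were incubated for 18-20 hours at 37° C. MBC was taken as the lowest concentration giving colony growth ca. 90% below the positive control, typically where only single colonies or none appeared.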

A. baumannii ATCC 19606 = assay: MIC without and with sub-inhibitory polymyxin B (Example 4); format: cell-based, Acinetobacter baumannii; conditions: Acinetobacter baumannii
Klebsiella ssp KPC-3 = assay: MIC, panel of quinolone-resistant strains (CLSI); format: cell-based, Klebsiella spp; conditions: KPC3, CIP R, ESBL
[7] = tested on: Acinetobacter sp. (H064200250); assay: MIC without and with sub-inhibitory polymyxin B (Example 4); format: cell-based; conditions: Acinetobacter, without polymyxin B
E. coli CTX-M-15 = assay: MIC, panel of quinolone-resistant strains (CLSI); format: cell-based; conditions: Escherichia coli, CTXM15; CIP R, ESBL
P. aeruginosa 1388-3-02 = assay: MIC, panel of quinolone-resistant strains (CLSI); format: cell-based; conditions: Pseudomonas aeruginosa, 1388302; CIP R, POL R
[8] = tested on: resistant strains of A. baumannii and one strain of Acinetobacter sp.; assay: MIC without and with sub-inhibitory polymyxin B, whole panel / MIC ranges (Example 4; also strains not listed separately); format: cell-based; conditions: for MIC: Acinetobacter baumannii
A. baumannii J2 [9] = assay: MIC without and with sub-inhibitory polymyxin B (Example 4); format: cell-based, Acinetobacter baumannii; conditions: Acinetobacter baumannii, J2, A. baumannii J2, without polymyxin B, read-out: MIC without PB
A. baumannii A390 = assay: Preliminary MBC without and with sub-inhibitory polymyxin B (Example 4); format: cell-based, Acinetobacter baumannii; conditions: Acinetobacter baumannii, A390, A. baumannii A390; without polymyxin B; preliminary MBC; 1st experiment; read-out: MBC without PB
A. baumannii A472 [10] = assay: MIC without and with sub-inhibitory polymyxin B (Example 4); format: cell-based, Acinetobacter baumannii; conditions: for MIC: Acinetobacter baumannii, A472, A. baumannii A472, without polymyxin B, read-out: MIC without PB
A. baumannii A 401 = assay: MIC determination for Acinetobacter strains (Example 3); format: cell-based; conditions: A401, LEV R, CIP R, AMK R, TET R
A. baumannii A472 [11] = assay: Preliminary MBC without and with sub-inhibitory polymyxin B (Example 4); format: cell-based, Acinetobacter baumannii; conditions: Acinetobacter baumannii, A472, A. baumannii A472, without polymyxin B, read-out: MBC without PB
A. baumannii A401 = assay: MIC without and with sub-inhibitory polymyxin B (Example 4); format: cell-based, Acinetobacter baumannii; conditions: Acinetobacter baumannii, A401, A baumannii A 401, without polymyxin B, read-out: MIC without PB
A. baumannii A472 [12] = assay: MIC determination for Acinetobacter strains (Example 3); format: cell-based; conditions: LEV R, CIP R, MRP I, IMP I, AMK R, TET R
A. baumannii A473 [13] = assay: MIC without and with sub-inhibitory polymyxin B (Example 4); format: cell-based, Acinetobacter baumannii; conditions: Acinetobacter baumannii, A473, A. baumannii A473, without polymyxin B, read-out: MIC without PB
A. baumannii A473 [14] = assay: Preliminary MBC without and with sub-inhibitory polymyxin B (Example 4); format: cell-based, Acinetobacter baumannii; conditions: Acinetobacter baumannii, A473, A. baumannii A473, without polymyxin B, read-out: MBC without PB
[15] = Acinetobacter spp. H064200250 (OXA51), 2nd experiment
[16] = Acinetobacter spp. H064200250, 1st experiment
[17] = ATCC19606, A. baumannii ATCC 19606, without polymyxin B, 2nd experiment, visual reading, read-out: MIC without PB
[18] = Acinetobacter spp. H064200250 (OXA51), 2nd experiment, visual reading, read-out: MIC without PB
[19] = Acinetobacter spp. H064200250, 1st experiment, read-out: MIC without PB
[20] = A. baumannii A14, without polymyxin B, 1st experiment, read-out: MIC without PB
[21] = read-out: MIC range without PB 01-10-2008 n = 8, without polymyxin B, 1st experiment, 8 strains
[22] = without polymyxin B, 2nd experiment, 11 strains, read-out: MIC range without PB 14-10-2008 n = 11

SMILES	MIC (E. coli 2906)	MBC (A. baumannii A489 [1])	MBC (A. baumannii J2 [2]; 2nd experiment)	MIC (P. aeruginosa 143-3-03)	MIC (A. baumannii A489 [5]; 2nd experiment, visual reading)	MIC (Pseudomonas ssp PER-1)	MBC [6, 15]	MBC [6, 16]	MIC (A. baumannii ATCC 19606; [17])	MIC (Klebsiella ssp KPC-3)	MIC [7, 18]	MIC [7, 19]	MIC (E. coli CTX-M-15)	MIC (P. aeruginosa 1388-3-02)	MIC [8, 20]	MIC [8, 21]	MIC [8, 22]	MIC (A. baumannii J2 [9]; 2nd experiment, visual reading)	further results
C[C@H]1COc2c(N3CCN(C)CC3)c(F)cc3c(=O)c(C(=O)O)cn1c23 [Levofloxacin, reference compound]	32 µg/mL (≈ 88.6 µM)	32 µg/mL (≈ 88.6 µM)	32 µg/mL (≈ 88.6 µM)	8 µg/mL (≈ 22.1 µM)	32 µg/mL (≈ 88.6 µM)	32 µg/mL (≈ 88.6 µM)	16 µg/mL (≈ 44.3 µM)	16 µg/mL (≈ 44.3 µM)	1 µg/mL (≈ 2.77 µM)	> 128 µg/mL	16 µg/mL (≈ 44.3 µM)	16 µg/mL (≈ 44.3 µM)	16 µg/mL (≈ 44.3 µM)	32 µg/mL (≈ 88.6 µM)	32 µg/mL (≈ 88.6 µM)	8 to 32 µg/mL (≈ 22.1 to 88.6 µM)	4 to 32 µg/mL (≈ 11.1 to 88.6 µM)	32 µg/mL (≈ 88.6 µM)	MBC (A. baumannii J2 [2]; 1st experiment): 32 µg/mL (≈ 88.6 µM); MIC (A. baumannii A329 [3]): 32 µg/mL (≈ 88.6 µM); MIC (A. baumannii A329 [4]): 32 µg/mL (≈ 88.6 µM); MIC (A. baumannii ATCC 19606; ATCC19606, A. baumannii ATCC 19606, without polymyxin B, 1st experiment, read-out: MIC without PB): 1 µg/mL (≈ 2.77 µM); MIC (A. baumannii ATCC 19606; ATCC19606, read-out: MIC +0.06 μg/ml PB, read with alamar blue, A. baumannii ATCC 19606, +0.06 μg/ml polymyxin B, 2nd experiment, MIC read with alamar blue): 0.5 µg/mL; fold greater activity (fold lower MIC) in presence of polymyxin B compared to without polymyxin B [8]: not significantly affected; MIC ([8]; A. baumannii A14, without polymyxin B, 2nd experiment, visual reading, read-out: MIC without PB): 32 µg/mL (≈ 88.6 µM); MIC ([8]; NCTC13301, A. baumannii NCTC 13301, without polymyxin B, 1st experiment, read-out: MIC without PB): 32 µg/mL (≈ 88.6 µM); MIC ([8]; NCTC13301, A. baumannii NCTC 13301, without polymyxin B, 2nd experiment, visual reading, read-out: MIC without PB): 32 µg/mL (≈ 88.6 µM); MIC (A. baumannii J2 [9]; 1st experiment): 32 µg/mL (≈ 88.6 µM)
Cc1c(-c2ccc(N)cc2)c(F)cn2c(=O)c(C(=O)O)cc(C3CC3)c12 [Compound 7, 8-(4-amino-phenyl)-1-cyclopropyl-7-fluoro-9-methyl-4-oxo-quinolizine-3-carboxylic acid]	32 µg/mL (≈ 90.8 µM)	4 µg/mL (≈ 11.4 µM)	4 µg/mL (≈ 11.4 µM)	4 µg/mL (≈ 11.4 µM)	8 µg/mL (≈ 22.7 µM)	16 µg/mL (≈ 45.4 µM)	8 µg/mL (≈ 22.7 µM)	4 µg/mL (≈ 11.4 µM)	0.25 µg/mL (≈ 0.709 µM)	16 µg/mL (≈ 45.4 µM)	16 µg/mL (≈ 45.4 µM)	8 µg/mL (≈ 22.7 µM)	32 µg/mL (≈ 90.8 µM)	16 µg/mL (≈ 45.4 µM)	32 µg/mL (≈ 90.8 µM)	2 to 32 µg/mL (≈ 5.68 to 90.8 µM)	2 to 16 µg/mL (≈ 5.68 to 45.4 µM)	4 µg/mL (≈ 11.4 µM)	MBC (A. baumannii A390): 4 µg/mL (≈ 11.4 µM); MIC ratio without/with polymyxin B (A. baumannii A472 [10]; A. baumannii A472, ratio MIC without PB to MIC + PB, PB […], 2nd experiment): ≥ 256 µg/mL; MIC (A. baumannii A472 [10]; 1st experiment): 4 µg/mL (≈ 11.4 µM); MIC (A. baumannii A472 [10]; 2nd experiment, visual reading): 8 µg/mL (≈ 22.7 µM); MIC (A. baumannii A 401): 4 µg/mL (≈ 11.4 µM); MBC (A. baumannii A472 [11]; 1st experiment): 4 µg/mL (≈ 11.4 µM); MBC (A. baumannii A472 [11]; 2nd experiment): 8 µg/mL (≈ 22.7 µM); MIC (A. baumannii A401; 1st experiment): 4 µg/mL (≈ 11.4 µM); MIC (A. baumannii A401; 2nd experiment, visual reading): 8 µg/mL (≈ 22.7 µM); MIC (A. baumannii A472 [12]): 4 µg/mL (≈ 11.4 µM); MIC (A. baumannii A489 [5]; 1st experiment): 8 µg/mL (≈ 22.7 µM); MIC ([7]; Acinetobacter spp. H064200250 (OXA51), 2nd experiment, MIC read with alamar blue, read-out: MIC without PB, read with alamar blue): 8 µg/mL (≈ 22.7 µM); MIC (A. baumannii A473 [13]; 1st experiment): 4 µg/mL (≈ 11.4 µM); MIC (A. baumannii A473 [13]; 2nd experiment, visual reading): 4 µg/mL (≈ 11.4 µM); MBC (A. baumannii A473 [14]; 1st experiment): 4 µg/mL (≈ 11.4 µM); MBC (A. baumannii A473 [14]; 2nd experiment): 4 µg/mL (≈ 11.4 µM)
